# Data: BindingDB's records for doi:10.1021/acs.jmedchem.5b01031 (Wayne State University, 2015)
# Columns and labels:
# [1] = target: T1, D(2) dopamine receptor (Homo sapiens, UniProt P14416); experiment: Antagonist activity against human D2 receptor expressed in CHO cells assessed as dopamine EC50 at 1 uM by [35S]GTPgammaS binding assay (Rvb = 225 +/- 45 nM)
# [2] = target: T1, D(2) dopamine receptor; experiment: Antagonist activity against human D2 receptor expressed in CHO cells assessed as dopamine EC50 at 200 nM by [35S]GTPgammaS binding assay (Rvb = 225 +/- 45 nM)
# T1 sequence (P14416 whole entry): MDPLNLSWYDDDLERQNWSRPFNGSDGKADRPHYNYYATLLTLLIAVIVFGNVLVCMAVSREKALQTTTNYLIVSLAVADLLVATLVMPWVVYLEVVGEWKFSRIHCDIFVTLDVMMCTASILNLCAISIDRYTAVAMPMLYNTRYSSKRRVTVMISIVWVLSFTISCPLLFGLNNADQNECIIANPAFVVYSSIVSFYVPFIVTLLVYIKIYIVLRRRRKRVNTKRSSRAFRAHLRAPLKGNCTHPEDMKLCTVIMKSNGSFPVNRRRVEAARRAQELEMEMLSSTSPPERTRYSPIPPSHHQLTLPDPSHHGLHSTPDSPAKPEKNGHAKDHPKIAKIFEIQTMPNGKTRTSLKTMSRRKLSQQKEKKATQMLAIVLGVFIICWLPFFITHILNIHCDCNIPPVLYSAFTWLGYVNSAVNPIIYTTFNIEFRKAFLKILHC
structure (smiles),measurement,setting,value
CCCN1CCC[C@@H](c2cccc(O)c2)C1 [Preclamol],EC50,[1],844 nM
same,EC50,[2],376 nM
